Patent publication US6060257A, “Tumor rejection antigens presented by HLA-B44 molecules, and uses thereof” (Ludwig Institute for Cancer Research, priority 1996, dated 2000)

Molecular target: T1, HLA-B*4402 (Homo sapiens, UniProt P01889, A223V/A65T/A93T/A95T/D201E/D98Y/E176V/E187L/E204Q/E69K/G107R/H137Y/K202T/L105A/L119I/N104T/N87E/Q56L/Q94N/R106L/R155S/R180D/S101N/S121R/S35A/S48T/T118I/V36M/W191S/Y140D/Y91S)
T1 construct: expressed in transfected cells; host or cells: C1R cells (MHC class I negative, EBV-transformed lymphoblastoid)
Assay: Competitive assay: inhibition of CTL 159/5 lysis of C1R-B*4402 cells sensitized with SEQ ID NO: 18
Type: cell-based
Details: C1R-B44 cells (B*4402 and B*4403 transfectants)

“Gin Glu Glu Gly Pro Ser Thr Phe [SEQ ID NO: 20]” was tested, and the “inhibition of lysis of C1R-B44 cells (indicates binding to HLA-B44 molecules)” value was “did inhibit lysis”.
